Where a name gives a salt, the structure may show the parent alone.

The subject of the first assay is hPSC-SCs.
Conditions: not given
The molecule `COc1ccc2c3c([nH]c2c1)[C@H]1C[C@H]2[C@H](C[C@@H](O)[C@H](OC)[C@H]2C(=O)O)CN1CC3.Cl` [Reserpinic acid hydrochloride] displayed a z.score.t of −0.4278. Same read-out and setting: in the case of `COc1ccn(C)c(=O)c1C#N` [Ricinine] it was 0.8646; in that of `Cc1nc2n(c(=O)c1CCN1CCC(c3noc4cc(F)ccc34)CC1)CCCC2` [Risperidone], 0.02517; in that of `O=[N+]([O-])c1cc([As](=O)(O)O)ccc1O` [Roxarsone], −0.751. `c1ccc2c(c1)CCCc1cc(NCCN3CCOCC3)nnc1-2` [SR-95639A] showed a z.score.t of −0.4139. On the same count and under the same terms, the result for `C[n+]1cc2c3c(ccc2c2ccc4cc5c(cc4c21)OCO5)OCO3` [Sanguinarine] reads −1.558; that for `Br.C[N+]1([O-])[C@@H]2CC(OC(=O)[C@H](CO)c3ccccc3)C[C@H]1[C@@H]1O[C@@H]12` (stereo partly drawn) [Scopolamin-N-oxide hydrobromide], −0.1983; that for `CN1[C@@H]2C[C@@H](OC(=O)[C@H](CO)c3ccccc3)C[C@H]1[C@@H]1O[C@@H]12` [Scopolamine hydrochloride], 0.07936. Same read-out and setting: in the case of `COc1cc2c(cc1O)[C@@H]1Cc3ccc(OC)c(O)c3CN1CC2` [Scoulerine] it was −1.209; in that of `O=C1C=C2C=C[C@@H]3C[C@@]2(O1)[C@H]1CCCCN31` [Securinine], −0.9042; in that of `C#CCN(C)[C@H](C)Cc1ccccc1` [Selegiline hydrochloride], −0.9978. With `C=C1C/C(=C/C)C(=O)O[C@@H]2CCN3CC=C(COC(=O)[C@]1(C)O)[C@H]23` [Seneciphylline], the z.score.t worked out at 0.767.

`NCCc1c[nH]c2ccc(O)cc12` [Serotonin hydrochloride] gave a z.score.t of −1.195.

For the molecule `C[C@@H]1CC[C@@]2(NC1)O[C@H]1C[C@H]3[C@@H]4CC=C5C[C@@H](O)CC[C@]5(C)[C@H]4CC[C@]3(C)[C@H]1[C@@H]2C` [Solasodine], the z.score.t was 0.9178.

As for `C1CCN2C[C@@H]3C[C@@H](CN4CCCC[C@@H]34)[C@H]2C1` [Sparteine (−)], the z.score.t amounted to 0.1131. Still for that read-out and setting: the result for `C[C@]12CC[C@H]3[C@@H](CC[C@]4(O)C[C@@H](O)CC[C@]34C=O)[C@@]1(O)CC[C@@H]2C1=CC(=O)OC1` [Strophanthidin] reads −2.4. The molecule `C[C@@H]1O[C@@H](O[C@H]2C[C@@H](O)[C@]3(CO)[C@H]4[C@H](O)C[C@]5(C)[C@@H](C6=CC(=O)OC6)CC[C@]5(O)[C@@H]4CC[C@]3(O)C2)[C@H](O)[C@H](O)[C@H]1O.O.O.O.O.O.O.O.O` [Strophantine octahydrate] displayed a z.score.t of −2.04.

Staying with this assay, now noted: HTS viability of hPSC-SCs in the presence of 30 mM glucose; Prestwick library; Table S4.
In the case of `COC(=O)[C@H]1[C@H]2C[C@@H]3c4[nH]c5cc(OC)ccc5c4CCN3C[C@H]2C[C@@H](OC(=O)/C=C/c2cc(OC)c(OC)c(OC)c2)[C@@H]1OC` [Rescinnamin], the z.score.t amounted to 0.006455.

As for `COC(=O)[C@H]1[C@H]2C[C@@H]3c4[nH]c5cc(OC)ccc5c4CCN3C[C@H]2C[C@@H](OC(=O)c2cc(OC)c(OC)c(OC)c2)[C@@H]1OC` [Reserpine], the z.score.t is recorded as −1.042. The same measure, in the same setting: the result for `Oc1ccc(C=Cc2cc(O)cc(O)c2)cc1` [Resveratrol] reads 0.9702. Still for that read-out and setting: in the case of `CC1=C(/C=C/C(C)=C/C=C/C(C)=C/C(=O)O)C(C)(C)CCC1` [Retinoic acid] it was 1.751; in that of `NC(=O)c1ncn([C@@H]2O[C@H](CO)[C@@H](O)[C@H]2O)n1` [Ribavirin], 2.03. As to `Cc1cc2nc3c(=O)[nH]c(=O)nc-3n(C[C@H](O)[C@H](O)[C@H](O)CO)c2cc1C` [Riboflavine], the z.score.t is reported as 1.211. Consider `NC[C@H]1O[C@H](O[C@H]2[C@H](O[C@@H]3O[C@H](CO)[C@@H](O)[C@H]3O)[C@@H](O)[C@H](N)C[C@@H]2N)[C@H](N)[C@@H](O)[C@@H]1O` [Ribostamycin sulfate salt], for which the z.score.t was −0.7757. Still for that read-out and setting: the result for `CO[C@H]1/C=C/O[C@@]2(C)Oc3c(C)c(O)c4c(c3C2=O)C2=NC3(CCN(CC(C)C)CC3)NC2=C(NC(=O)/C(C)=C\C=C\[C@H](C)[C@H](O)[C@@H](C)[C@@H](O)[C@@H](C)[C@H](OC(C)=O)[C@@H]1C)C4=O` [Rifabutin] reads −0.1474; that for `CO[C@H]1/C=C/O[C@@]2(C)Oc3c(C)c(O)c4c(O)c(c(/C=N/N5CCN(C)CC5)c(O)c4c3C2=O)NC(=O)/C(C)=C\C=C\[C@H](C)[C@H](O)[C@@H](C)[C@@H](O)[C@@H](C)[C@H](OC(C)=O)[C@@H]1C` [Rifampicin], 1.139. On to `CCC(=O)[C@@]1(C)[C@H](C)C[C@H]2[C@@H]3CCC4=CC(=O)C=C[C@]4(C)[C@H]3[C@@H](O)C[C@@]21C` [Rimexolone], for which the z.score.t is listed as −1.354. Still for that read-out and setting: the result for `CC(NCCc1ccc(O)cc1)C(O)c1ccc(O)cc1` (stereo not drawn) [Ritodrine hydrochloride] reads 0.5046; that for `COc1ccc(C2CNC(=O)C2)cc1OC1CCCC1` (stereo not drawn) [Rolipram], −0.01101; that for `CN(C)[C@@H]1C(O)=C(C(=O)NCN2CCCC2)C(=O)[C@@]2(O)C(O)=C3C(=O)c4c(O)cccc4[C@@](C)(O)[C@H]3C[C@@H]12` [Rolitetracycline], 1.601. As to `Cn1c([N+](=O)[O-])cnc1COC(N)=O` [Ronidazole], the z.score.t is recorded as −0.5875. Same read-out and setting: in the case of `CC(=O)OCC(=O)NCCCOc1cccc(CN2CCCCC2)c1` [Roxatidine Acetate HCl] it was 1.139; in that of `CC[C@H]1OC(=O)[C@H](C)[C@@H](O[C@H]2C[C@@](C)(OC)[C@@H](O)[C@H](C)O2)[C@H](C)[C@@H](O[C@@H]2O[C@H](C)C[C@H](N(C)C)[C@H]2O)[C@](C)(O)C[C@@H](C)/C(=N\OCOCCOC)[C@H](C)[C@@H](O)[C@]1(C)O` [Roxithromycin], 0.3241; in that of `CC(C)Cc1ccc([C@H](C)C(=O)O)cc1` [S-(+)-ibuprofen], 1.02. For `CC(C)(C)NCC(O)c1ccc(O)c(CO)c1` (stereo not drawn) [Salbutamol], the z.score.t is recorded as 0.5041. `OCc1cc(C(O)CNCCCCCCOCCCCc2ccccc2)ccc1O` (stereo not drawn) [Salmeterol]: the z.score.t was −1.331. On to `C[C@@H]1NCCc2cc(O)c(O)cc21` [Salsolinol hydrobromide], for which the z.score.t is 0.4048. With `CC(C)(C)NC(=O)[C@@H]1C[C@@H]2CCCC[C@@H]2CN1C[C@@H](O)[C@H](Cc1ccccc1)NC(=O)[C@H](CC(N)=O)NC(=O)c1ccc2ccccc2n1` [Saquinavir mesylate], the z.score.t is −0.3033. For `COc1cc2ccc(=O)oc2cc1O` [Scopoletin], the z.score.t is on record as −1.558. Same read-out and setting: in the case of `Clc1ccc(C(Cn2ccnc2)OCc2csc3c(Cl)cccc23)c(Cl)c1` (stereo not drawn) [Sertaconazole nitrate] it was −1.558; in that of `CN[C@H]1CC[C@@H](c2ccc(Cl)c(Cl)c2)c2ccccc21` [Sertraline], −1.388.

Turning to `CCC(C)(C)C(=O)O[C@H]1C[C@@H](C)C=C2C=C[C@H](C)[C@H](CC[C@@H]3C[C@@H](O)CC(=O)O3)[C@H]21` [Simvastatin], the z.score.t is recorded as −0.9395. For `CN[C@@H]1[C@@H](O)[C@@H](O[C@@H]2[C@@H](O)[C@H](O[C@H]3OC(CN)=CC[C@H]3N)[C@@H](N)C[C@H]2N)OC[C@]1(C)O` [Sisomicin sulfate], the z.score.t is given as −0.3319. For `COc1ccc2c(OC)c3ccoc3nc2c1OC` [Skimmianine], the z.score.t is on record as −0.7376.

As to `CC(C)NCC(O)c1ccc(NS(C)(=O)=O)cc1` (stereo not drawn) [Sotalol hydrochloride], the z.score.t was −1.056.

Take `CC(=O)N[C@@H](CC(=O)N[C@@H](CCC(=O)O)C(=O)O)C(=O)O` [Spaglumic acid]: the z.score.t came to 2.046.

Take `CN[C@@H]1[C@H](O)[C@H](NC)[C@H]2O[C@@]3(O)C(=O)C[C@@H](C)O[C@H]3O[C@@H]2[C@H]1O` [Spectinomycin dihydrochloride]: the z.score.t is recorded as 1.101. Take `O=C(CCCN1CCC2(CC1)C(=O)NCN2c1ccccc1)c1ccc(F)cc1` [Spiperone]: the z.score.t was 0.09999. As for `CC(=O)S[C@@H]1CC2=CC(=O)CC[C@]2(C)[C@H]2CC[C@@]3(C)[C@@H](CC[C@@]34CCC(=O)O4)[C@H]12` [Spironolactone], the z.score.t amounted to 0.05523. As to `C[N+]1(C)CCC[C@H]1C(=O)[O-].Cl` [Stachydrine hydrochloride], the z.score.t was −0.8304.

Turning to `[H]/N=C(/N)N[C@H]1[C@H](O)[C@@H](O)[C@H](O[C@@H]2O[C@@H](C)[C@](O)(C=O)[C@H]2O[C@@H]2O[C@@H](CO)[C@H](O)[C@@H](O)[C@@H]2NC)[C@@H](N/C(N)=N\[H])[C@@H]1O` [Streptomycin sulfate], the z.score.t was −1.359. Take `O=C(O)CCC(=O)Nc1ccc(S(=O)(=O)Nc2nccs2)cc1` [Succinylsulfathiazole]: the z.score.t is reported as −0.6792.

Regarding `Clc1ccc(CSC(Cn2ccnc2)c2ccc(Cl)cc2Cl)cc1` (stereo not drawn) [Sulconazole nitrate], the z.score.t is listed as −0.2136.

Regarding `Nc1ccc(S(=O)(=O)NC(=O)c2ccccc2)cc1` [Sulfabenzamide], the z.score.t is listed as −0.9042. As for `CC(=O)[N-]S(=O)(=O)c1ccc(N)cc1.O.[Na+]` [Sulfacetamide sodic hydrate], the z.score.t was −0.2865. Turning to `Nc1ccc(S(=O)(=O)Nc2ccc(Cl)nn2)cc1` [Sulfachloropyridazine], the z.score.t was −0.1014. The same measure, in the same setting: in the case of `Nc1ccc(S(=O)(=O)Nc2ncccn2)cc1` [Sulfadiazine] it was 0.5856.

For the molecule `COc1cc(NS(=O)(=O)c2ccc(N)cc2)nc(OC)n1` [Sulfadimethoxine], the z.score.t came to 0.1469.

As to `COc1ncnc(NS(=O)(=O)c2ccc(N)cc2)c1OC` [Sulfadoxine], the z.score.t is listed as 0.8015.

In the case of `[H]/N=C(/N)NS(=O)(=O)c1ccc(N)cc1` [Sulfaguanidine], the z.score.t is on record as −0.2425. Consider `Cc1ccnc(NS(=O)(=O)c2ccc(N)cc2)n1` [Sulfamerazine], for which the z.score.t worked out at 0.3022. Take `COc1cnc(NS(=O)(=O)c2ccc(N)cc2)nc1` [Sulfameter]: the z.score.t is on record as 1.493. On the same count and under the same terms, in the case of `Cc1cc(C)nc(NS(=O)(=O)c2ccc(N)cc2)n1` [Sulfamethazine sodium salt] it was 0.3022.

These data come from patent US20260053861A1, “CELL COMPOSITIONS AND METHODS OF USING THE SAME” (THE REGENTS OF THE UNIVERSITY OF CALIFORNIA, priority 2022, published 2026).
